Test results: article PMC7489537, “Ser-653-Asn substitution in the acetohydroxyacid synthase gene confers resistance in weedy rice to imidazolinone herbicides in Malaysia” (PLoS ONE, 2020)
Changes are numbered by the printed parent chain.

Assays:
[1] = biological target: T1, AHAS (acetohydroxyacid synthase), weedy rice (Oryza sativa, UniProt Q6K2E8, S627N/V643M); assay: AHAS inhibition assay, colorimetric acetoin at […] nm; assay type: biochemical; details: susceptible (S) population; partially purified leaf extract; 60 min incubation; read-out: I50
T1 construct: gene ALS1; native enzyme, partially purified leaf extract; Pro93 and Met669 (Arabidopsis numbering); resistant weedy rice allele (S653N) deposited as GenBank MN268688
T1 sequence (Q6K2E8 44-644 S627N/V643M): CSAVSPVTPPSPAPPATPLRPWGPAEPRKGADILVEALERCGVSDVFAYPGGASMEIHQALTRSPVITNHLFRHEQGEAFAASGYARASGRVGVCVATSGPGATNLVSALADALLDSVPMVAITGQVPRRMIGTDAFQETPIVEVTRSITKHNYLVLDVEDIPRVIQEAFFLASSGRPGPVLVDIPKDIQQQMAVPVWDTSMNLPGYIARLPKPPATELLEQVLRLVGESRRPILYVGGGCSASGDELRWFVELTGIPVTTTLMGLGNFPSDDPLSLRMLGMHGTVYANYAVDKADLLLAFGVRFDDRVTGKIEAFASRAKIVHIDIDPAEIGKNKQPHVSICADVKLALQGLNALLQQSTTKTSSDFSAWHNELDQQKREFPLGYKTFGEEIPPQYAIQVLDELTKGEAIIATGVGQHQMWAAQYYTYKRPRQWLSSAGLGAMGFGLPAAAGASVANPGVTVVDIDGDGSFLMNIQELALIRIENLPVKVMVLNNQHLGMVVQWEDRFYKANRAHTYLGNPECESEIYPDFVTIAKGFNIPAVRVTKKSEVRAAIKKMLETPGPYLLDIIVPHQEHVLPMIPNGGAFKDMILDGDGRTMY

[2] = biological target: T2, AHAS (acetohydroxyacid synthase), MR219 (Oryza sativa, UniProt Q6K2E8, P67T); assay: as above; assay type: biochemical; details: cultivar MR219; partially purified leaf extract; 60 min incubation; read-out: I50
T2 construct: gene ALS1; native enzyme, partially purified leaf extract; natural Thr93, Ser653, Val669 (Arabidopsis numbering)
T2 sequence (Q6K2E8 44-644 P67T): T1 sequence (Q6K2E8 44-644 S627N/V643M) with P24T, N584S, M600V

SMILES	IC50 [1]	IC50 [2]
Cc1cnc(C2=NC(=O)C(C)(C(C)C)N2)c(C(=O)O)c1 (stereo not shown) [imazapic]	1.2 nM	1.7 nM
CC(C)C1(C)N=C(c2ncccc2C(=O)O)NC1=O (stereo not shown) [imazapyr]	2.5 nM	1.7 nM
